From publication PMC9919513, “A Practical Approach to Bicyclic Carbamoyl Pyridones with Application to the Synthesis of HIV-1 Integrase Strand Transfer Inhibitors” (Molecules, 2023)
Read-outs that look alike come from different tables or passages of the source.

Key:
[1] = test system: HIV-1 vectors that carry WT IN; experiment: Single-round HIV-1 replication antiviral assay, wild-type IN; type: cell-based; conditions: for EC50: 48 h; for Ratio of the antiviral potencies after and before hydrogenation (WT): EC50 of saturated 7 over EC50 of unsaturated 6, WT IN
Protocol: The bicyclic metal chelating carbamoyl pyridone moiety is common to second-generation tricyclic INSTIs (3, 4, and 5, Figure 1). Analogs of the current study are simplified analogs that lack a third ring. […] The halogen substitution pattern of the benzylamide moiety can affect inhibitory potencies of INSTIs. We determined the antiviral potencies of our compounds in single round HIV-1 replication assays using viral constructs with wild-type IN [31]. Cytotoxicities were determined as previously described. […] In general, the potencies of bicyclic analogs 6 having an unsaturated bond at the C4 position were insensitive to differences in N-methyl substituents. […] Analogs 6g and 6h represent simplified analogs of DTG (3) and CAB (5), respectively, in which the third ring (C-ring) is opened and having doble bond in B-ring, but lacking α-methyl stereochemistry.
Human embryonic kidney cell culture cell line 293 was acquired from the American Type Culture Collection (ATCC). The human osteosarcoma cell line, HOS, was obtained from Dr. Richard Schwartz (Michigan State University, East Lansing, MI, USA) and grown in Dulbecco’s modified Eagle’s medium (Invitrogen, Carlsbad, CA, USA) supplemented with 5% (v/v) fetal bovine serum, 5% newborn calf serum, and penicillin (50 units/mL) plus streptomycin (50 µg/mL; Quality Biological, Gaithersburg, MD, USA). The transfection vector, pNLNgoMIVR-ΔLUC was made from pNLNgoMIVR-ΔEnv.HSA by removing the HSA reporter gene and replacing it with a luciferase reporter gene between the NotI and XhoI restriction sites. To produce the new IN mutant S230N used in this study, the IN open reading frame was removed from pNLNgoMIVR-ΔENV.LUC by digestion with KpnI and SalI, and the resulting fragment was inserted between the KpnI and SalI sites of pBluescript KS+. Using that construct as the wild-type template, we prepared the following HIV-1 IN mutant S230N using the QuikChange II XL site-directed mutagenesis kit (Agilent Technologies, Santa Clara, CA, USA) protocol. The following sense oligonucleotides were used with matching cognate antisense oligonucleotides (not shown) (Integrated DNA Technologies, Coralville, IA, USA) in the mutagenesis: S230N 5′-[…]-3′. The DNA sequence of the IN mutant S230N construct was verified independently by DNA sequence determination. The mutated IN coding sequences from pBluescript KS+ were then subcloned into pNLNgoMIVR-ΔEnv.LUC (between the KpnI and SalI sites) to produce mutant HIV-1 constructs, which were also checked by DNA sequencing. […]. On the day prior to transfection, 293 cells were plated on 100 mm diameter dishes at a density of 1.5 × 10^6 cells per plate. Next, 293 cells were transfected with 16 µg of pNLNgoMIVR^-ΔLUC and 4 µg of pHCMV-g (obtained from Dr. Jane Burns, University of California, San Diego) using the calcium phosphate method. At approximately 6 h after the calcium phosphate precipitate was added, 293 cells were washed twice with phosphate-buffered saline (PBS) and incubated with fresh media for 48 h. The virus-containing supernatants were then harvested, clarified by low-speed centrifugation, filtrated, and diluted for preparation in antiviral infection assays. On the day prior to the screen, HOS cells were seeded in a 96-well luminescence cell culture plate at a density of 4000 cells in 100 µL per well. On the day of the screen for cellular cytotoxicity determination, cells were treated with compounds from a concentration range of 250 µM to 0.05 µM and then incubated at 37 °C for 48 h. On the day of the screen for antiviral activity infection assays, cells were treated with compounds from a concentration range of 5 µM to 0.0001 µM using 11 serial dilutions and then incubated at 37 °C for 3 h. After compound incorporation and activation in the cell, 100 µL of virus-stock (WT or mutant) diluted to achieve a luciferase signal between 0.2 and 1.5 Relative Luciferase Units (RLUs) was added to each well and further incubated at 37 °C for 48 h. […]

[2] = Human immunodeficiency virus 1, HOS, read-out: EC50, antiviral potency, WT IN, VSV-g-pseudotyped HIV-1 luciferase vector with WT IN, HOS cells, 48 h
[3] = read-out: EC50, antiviral potency, WT IN, VSV-g-pseudotyped HIV-1 luciferase vector with WT IN, HOS cells

Structure (SMILES): O=C(NCc1ccc(F)cc1F)c1cn2ccn(CCCCCCO)c(=O)c2c(O)c1=O [Compound 6c, N-(2,4-Difluorobenzyl)-9-hydroxy-2-(6-hydroxyhexyl)-1,8-dioxo-1,8-dihydro-2H-pyrido [1,2-a]pyrazine-7-carboxamide]
- EC50 [1, 2]: 4.8 ± 0.9 nM

Structure (SMILES): O=C(NCc1ccc(F)cc1F)c1cn2ccn(CCCCO)c(=O)c2c(O)c1=O [Compound 6e, N-(2,4-Difluorobenzyl)-9-hydroxy-2-(4-hydroxybutyl)-1,8-dioxo-1,8-dihydro-2H-pyrido [1,2-a]pyrazine-7-carboxamide]
- EC50 [1, 2]: ~17 nM
- EC50 [1, 3]: 16.6 ± 2 nM

Structure (SMILES): O=C(NCc1ccc(F)cc1F)c1cn2ccn(CCCCCO)c(=O)c2c(O)c1=O [Compound 6d, N-(2,4-Difluorobenzyl)-9-hydroxy-2-(5-hydroxypentyl)-1,8-dioxo-1,8-dihydro-2H-pyrido [1,2-a]pyrazine-7-carboxamide]
- EC50 [1, 2]: ~11 nM
- EC50 [1, 3]: 10.8 ± 1.7 nM

Structure (SMILES): O=C(NCc1ccc(F)cc1F)c1cn2c(c(O)c1=O)C(=O)N(CCCCO)CC2 [Compound 7e, N-(2,4-Difluorobenzyl)-9-hydroxy-2-(4-hydroxybutyl)-1,8-dioxo-1,3,4,8-tetrahydro-2H-pyrido [1,2-a]pyrazine-7-carboxamide]
- Ratio of the antiviral potencies after and before hydrogenation (WT) [1]: 4.6
- EC50 [1, 2]: 75.7 ± 7.4 nM
- melting point: 210 to 215 °C

Structure (SMILES): O=C(NCc1ccc(F)cc1F)c1cn2c(c(O)c1=O)C(=O)N(CCCCCCO)CC2 [Compound 7c, N-(2,4-Difluorobenzyl)-9-hydroxy-2-(6-hydroxyhexyl)-1,8-dioxo-1,3,4,8-tetrahydro-2H-pyrido [1,2-a]pyrazine-7-carboxamide]
- Ratio of the antiviral potencies after and before hydrogenation (WT) [1]: 6.6
- EC50 [1, 2]: 31.7 ± 3.8 nM
- melting point: 208 to 210 °C
